The record followed here is patent publication US8987314B2, “Amide, urea or sulfone amide linked benzothiazole inhibitors of endothelial lipase” (Bristol-Myers Squibb Company, priority 2012, dated 2015).

One assay has as its target Endothelial lipase (EL) (Homo sapiens (Human), UniProt Q9Y5X9). Put plainly: EL assay: endothelial lipase activity with fluorescent substrate A10070 in DMPG vesicles. Type of assay: biochemical. The method in brief:
(§1)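 Compounds were preincubated with enzyme for 30 min at 37° C before FRET-substrate vesicles (A10070 in DMPG, 0.11 mole fraction) were added. Reaction rates were obtained from the 300–900 sec slope of fluorescence at 490/530 nm.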

A further assay concerns the target hepatic lipase (HL) (Homo sapiens (Human), UniProt P11150). Put plainly: HL assay: hepatic lipase activity with fluorescent substrate A10070 in DMPG vesicles. It is filed as biochemical. The method in brief:
as §1

Structures are written as SMILES.

Chain of hepatic lipase (HL) (P11150 23-499, species assumed): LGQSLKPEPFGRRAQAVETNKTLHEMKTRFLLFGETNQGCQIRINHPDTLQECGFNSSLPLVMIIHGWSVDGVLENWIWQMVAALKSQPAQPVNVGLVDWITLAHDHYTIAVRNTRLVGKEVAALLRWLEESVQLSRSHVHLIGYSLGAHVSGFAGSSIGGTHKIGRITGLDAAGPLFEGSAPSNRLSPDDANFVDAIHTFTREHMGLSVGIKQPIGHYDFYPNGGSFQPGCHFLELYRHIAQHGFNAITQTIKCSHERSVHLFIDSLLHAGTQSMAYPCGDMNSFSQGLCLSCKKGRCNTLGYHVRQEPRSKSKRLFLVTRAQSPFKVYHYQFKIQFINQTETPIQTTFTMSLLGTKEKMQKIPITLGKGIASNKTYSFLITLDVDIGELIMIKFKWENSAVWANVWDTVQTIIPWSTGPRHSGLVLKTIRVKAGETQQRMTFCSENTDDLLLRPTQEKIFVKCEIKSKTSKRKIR
Chain of Endothelial lipase (EL) (Q9Y5X9 21-500): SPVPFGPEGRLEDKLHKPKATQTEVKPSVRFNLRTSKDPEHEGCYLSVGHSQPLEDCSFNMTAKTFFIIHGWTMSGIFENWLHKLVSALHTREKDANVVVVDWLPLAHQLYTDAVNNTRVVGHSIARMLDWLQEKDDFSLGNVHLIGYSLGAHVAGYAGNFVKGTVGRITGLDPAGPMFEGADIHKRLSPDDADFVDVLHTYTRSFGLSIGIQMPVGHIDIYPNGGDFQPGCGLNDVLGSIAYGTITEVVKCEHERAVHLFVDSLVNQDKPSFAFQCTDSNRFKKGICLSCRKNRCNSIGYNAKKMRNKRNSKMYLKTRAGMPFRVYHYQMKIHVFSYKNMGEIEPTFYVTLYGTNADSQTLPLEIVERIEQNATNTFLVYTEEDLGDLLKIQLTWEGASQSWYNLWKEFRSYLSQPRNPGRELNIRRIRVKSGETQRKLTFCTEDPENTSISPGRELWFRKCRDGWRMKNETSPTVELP

As to `COc1cc(-c2ccc3nc(C(C(=O)NCCS(N)(=O)=O)S(=O)(=O)CCC(F)(F)F)sc3c2)ccn1` (stereo not shown) [Example B144, 2-(6-(2-methoxy-4-pyridinyl)-1,3-benzothiazol-2-yl)-N-(2-sulfamoylethyl)-2-((3,3,3-trifluoropropyl)sulfonyl)a-cetamide], the values for the IC50 on Endothelial lipase (EL) and against hepatic lipase (HL) were below 10 nM and 33 nM, respectively.

For `Cn1ccc(-c2ccc3nc(C(C(=O)NCCS(N)(=O)=O)S(=O)(=O)CCC(F)(F)F)sc3c2)cc1=O` (stereo not shown) [Example B145, 2-(6-(1-methyl-2-oxo-1,2-dihydro-4-pyridinyl)-1,3-benzothiazol-2-yl)-N-(2-sulfamoylethyl)-2-((3,3,3-trifluoropropyl)sulfonyl)a-cetamide], the IC50 on Endothelial lipase (EL) was below 10 nM; against hepatic lipase (HL) it was 362 nM.

For `CS(=O)(=O)C(C(=O)NCCS(N)(=O)=O)c1nc2ccc(-c3cncnc3)cc2s1` (stereo not shown) [Example B146, 2-(methylsulfonyl)-2-(6-(5-pyrimidinyl)-1,3-benzothiazol-2-yl)-N-(2-sulfamoylethyl)acetamide], the results for the IC50 on Endothelial lipase (EL) and against hepatic lipase (HL) were below 10 nM and 916 nM, respectively.

Regarding `COc1cc(-c2ccc3nc(C(C(=O)NCCS(N)(=O)=O)S(C)(=O)=O)sc3c2)ccn1` (stereo not shown) [Example B147, 2-(6-(2-methoxy-4-pyridinyl)-1,3-benzothiazol-2-yl)-2-(methylsulfonyl)-N-(2-sulfamoylethyl)acetamide], the IC50 on Endothelial lipase (EL) and against hepatic lipase (HL) was below 10 nM throughout.

Take `COCCS(=O)(=O)C(C(=O)NCCS(N)(=O)=O)c1nc2ccc(-c3ccnc(OC)c3)cc2s1` (stereo not shown) [Example B148, 2-((2-methoxyethyl)sul-fonyl)-2-(6-(2-methoxy-4-pyridinyl)-1,3-benzothiazol-2-yl)-N-(2-sulfamoylethyl)acetamide]: the IC50 is below 10 nM at Endothelial lipase (EL) and 13 nM on hepatic lipase (HL).

Regarding `COc1nccc(-c2ccc3nc(C(C(=O)NCCS(N)(=O)=O)S(C)(=O)=O)sc3c2)c1F` (stereo not shown) [Example B149, 2-(6-(3-fluoro-2-methoxy-4-pyridinyl)-1,3-benzothiazol-2-yl)-2-(methylsulfonyl)-N-(2-sulfamoylethyl)acetamide], the IC50 was below 10 nM at Endothelial lipase (EL) and 64 nM on hepatic lipase (HL).

With `Cc1nnc(CNC(=O)C(c2nc3cc(F)c(-c4ccccc4)cc3s2)S(=O)(=O)CCC(F)(F)F)o1` (stereo not shown) [Example B150, 2-(5-Fluoro-6-phenyl-1,3-benzothiazol-2-yl)-N-((5-methyl-1,3,4-oxadiazol-2-yl)methyl)-2-((3,3,3-trifluoropropyl)sulfonyl)a-cetamide], the results for the IC50 at Endothelial lipase (EL) and against hepatic lipase (HL) were below 10 nM and 84 nM, respectively.

As for `CCS(=O)(=O)C(C(=O)NCc1nnc(C)o1)c1nc2cc(F)c(-c3ccccc3)cc2s1` (stereo not shown) [Example B151, 2-(ethylsulfonyl)-2-(5-fluoro-6-phenyl-1,3-benzothiazol-2-yl)-N-((5-methyl-1,3,4-oxadiazol-2-yl)methyl)acetamide], the IC50 at Endothelial lipase (EL) was below 10 nM; on hepatic lipase (HL) it was 47 nM.

As for `Cc1nnc(CNC(=O)C(c2nc3cc(F)c(-c4ccccc4)cc3s2)S(=O)(=O)CC(C)C)o1` (stereo not shown) [Example B152, 2-(5-fluoro-6-phenyl-1,3-benzothiazol-2-yl)-2-(isobutylsulfonyl)-N-((5-methyl-1,3,4-oxadiazol-2-yl)methyl)acetamide], the figures for the IC50 against Endothelial lipase (EL) and on hepatic lipase (HL) were below 10 nM and 39 nM, respectively.

For `Cc1nnc(CNC(=O)C(c2nc3cc(F)c(-c4ccccc4)cc3s2)S(=O)(=O)Cc2ccccc2)o1` (stereo not shown) [Example B153, 2-(benzylsulfonyl)-2-(5-fluoro-6-phenyl-1,3-benzothiazol-2-yl)-N-((5-methyl-1,3,4-oxadiazol-2-yl)methyl)acetamide], the figures for the IC50 on Endothelial lipase (EL) and at hepatic lipase (HL) were below 10 nM and 39 nM, respectively.

Regarding `Cc1nnc(CNC(=O)C(c2nc3cc(F)c(-c4ccccc4)cc3s2)S(C)(=O)=O)o1` (stereo not shown) [Example B154, 2-(5-fluoro-6-phenyl-1,3-benzothiazol-2-yl)-N-[(5-methyl-1,3,4-oxadiazol-2-yl)methyl]-2-(methylsulfonyl)acetamide], the IC50 was below 10 nM on Endothelial lipase (EL) and 11 nM against hepatic lipase (HL).
